Reference: patent US20050288355A1, “Combination therapy wherein a serotonin reuptake inhibitor is used” (priority 2002, published 2005)

Columns and labels:
[1] = tested on: 5-HT levels in rat ventral hippocampus; experiment: Microdialysis of brain serotonin levels, ventral hippocampus; format: in vivo
Procedure: (§1) Male albino rats of a Wistar-derived strain (285-320 g; Harlan, Zeist, The Netherlands) were used for the experiments. Upon surgery, rats were housed individually in plastic cages (35×35×40 cm), and had free access to food and water. Animals were kept on a 12 h light schedule (light on 7:00 a.m.). The experiments are concordant with the declarations of Helsinki and were approved by the animal care committee of the faculty of mathematics and natural science of the University of Groningen.
Microdialysis of brain serotonin levels was performed using home made I-shaped probes, made of polyacrylonitrile/sodium methyl sulfonate copolymer dialysis fiber (i.d. 220 μn, o.d. […], AN 69, Hospal, Italy). Preceding surgery rats were anaesthetised using isoflurane (O2/N2O; 300/300 ml/min). Lidocaine-HCl, 10% (m/v) was used for local anaesthesia. Rats were placed in a stereotaxic frame (Kopf, USA), and probes were inserted into Ventral Hippcampus (V. Hippo, L+4.8 mm, IA: +3.7 mm, V: −8.0 mm) and median prefrontal cortex (PFC, L −0.9 mm; AP: +3.5 mm relative to bregma; V: −6.0 mm (Paxinos and Watson, 1982). After insertion, probes were secured with dental cement.
Rats were allowed to recover for at least 24 h. Probes were perfused with artificial cerebrospinal fluid containing 147 mM NaCl, 3.0 mM KCl, 1.2 mM CaCl2, and 1.2 mM MgCl2, at a flow-rate of 1.5 μl/min (Harvard apparatus, South Natick, Ma., USA). 15 minute microdialysis samples were collected in HPLC vials containing 7.5 μl 0.02 M acetic acid for serotonin analysis.
(§2) Twenty-μl microdialysate samples were injected via an autoinjector (CMA/200 refrigerated microsampler, CMA, Sweden) onto a 100×2.0 mm C18 Hypersil 3 μm column (Bester, Amstelveen, the Netherlands) and separated with a mobile phase consisting of 5 g/L di-ammoniumsulfate, 500 mg/L EDTA, 50 mg/L heptane sulphonic acid, 4% methanol v/v, and 30 μl/L of triethylamine, pH 4.65 at a flow of 0.4 ml/min (Shimadzu LC-10 AD). 5-HT was detected amperometrically at a glassy carbon electrode at 500 mV vs Ag/AgCl (Antec Leyden, Leiden, The Netherlands). The detection limit was 0.5 fmol 5-HT per 20 μl sample (signal to noise ratio 3).
Four consecutive microdialysis samples with less then 20% variation were taken as control and set at 100%. Data are presented as percentages of control level (mean±S.E.M.) in time. Statistical analysis was performed using Sigmastat for Windows (SPSS, Jandel Corporation). Treatments were compared versus controls using two way analysis of variance (ANOVA) for repeated measurements, followed by Student Newman Keuls test. Level of significance level was set at p<0.05.

[2] = tested on: 5-HT in the raphe nuclei / forebrain; settings: cited from earlier work
[3] = tested on: 5-HT levels in rat prefrontal cortex; experiment: Microdialysis of brain serotonin levels, prefrontal cortex; format: in vivo; settings: PFC; 2 mg/kg s.c. co-administered with citalopram 10 μmol/kg s.c.; P=0.048
Procedure: as §1
Microdialysis of brain serotonin levels was performed using home made I-shaped probes, made of polyacrylonitrile/sodium methyl sulfonate copolymer dialysis fiber (i.d. 220 μn, o.d. 0.31 μm, AN 69, Hospal, Italy). Preceding surgery rats were anaesthetised using isoflurane (O2/N2O; 300/300 ml/min). Lidocaine-HCl, 10% (m/v) was used for local anaesthesia. […]
as §2, with “The detection limit was 0.5 fmol 5-HT per 20 μl sample (signal to noise ratio 3).” left out

## NCC(O)(CS(=O)(=O)O)c1ccc(Cl)cc1 (centres unmarked) [2-hydroxysaclofen]
[1]; 2 mg/kg s.c. simultaneous with citalopram 10 μmol/kg s.c., P=0.046
  effects on 5-HT levels with citalopram: augmented effects on 5-HT levels

## NCCCP(=O)(O)CC1CCCCC1 [CGP 46381]
[1]; 0.5 mg/kg co-administered with citalopram 10 μmol/kg, treatment p=0.04
  response on 5-HT levels with citalopram: augmented response
[1]; 2 mg/kg co-administered with citalopram 10 μmol/kg, treatment p=0.10, treatment vs. time 0.001
  response on 5-HT levels with citalopram: augmented response
[1]; 10 mg/kg s.c., without citalopram
  effect on 5-HT levels, given alone: did not show any effect

## NCC(CP(=O)(O)O)c1ccc(Cl)cc1 (centres unmarked) [Phaclofen]
[1]; 2 mg/kg s.c. co-administered with citalopram 10 μmol/kg s.c., P=0.021, t=75 to t=135
  5-HT levels compared to citalopram treatment alone: enhanced levels of 5-HT
[1]; administered either centrally into the hippocampus or systemically, with citalopram
  effects of citalopram on extracellular 5-HT levels: significantly increase
[1]; local infusion (50 μM) in ventral hippocampus, P=0.26
  effect on basal levels of 5-HT: did not have any effect
[1]; local phaclofen 50 μM, citalopram 10 μmol/kg s.c., P=0.0068, significant from t=75 to 150 min
  5-HT levels after systemic citalopram during local administration: augmented levels of 5-HT
[2]; raphe or forebrain
  effect on 5-HT levels when administered by itself: devoid of effect
[3]
  5-HT levels compared to citalopram treatment alone: enhanced levels of 5-HT

## NCC(CC(=O)O)c1ccc(Cl)cc1 (centres unmarked) [baclofen]
[2]; forebrain
  5-HT in the forebrain: reduction
[2]; raphe
  5-HT in the raphe: decrease

## CN1CCc2cc3c(cc2[C@H]1[C@@H]1OC(=O)c2c1ccc1c2OCO1)OCO3 [bicuculline, (+)-Bicuculline]
[1]; local administration of 50 μM in ventral hippocampus, significant from t=45 to 90 min
  increase of serotonin levels: about 150%

## NCc1cc(=O)[nH]o1 [muscimol]
[2]; raphe nuclei
  5-HT cell activity & 5-HT release: reduced
